This is an account of results in patent publication US5859067A, “Use of natural products and related synthetic compounds for the treatment of cardiovascular disease” (priority 1993, dated 1999).

For orientation: LC50 means the concentration that kills 50% of the test population. The term IC50 denotes the point on the concentration scale where inhibition reaches its midpoint. The inhibition is the drop in the measured response relative to a control, in per cent.

≈ marks a conversion by molar mass, not a printed value. Where “and” joins values, the source holds several entries; their conditions need not be identical. Equal values may be shown once. Read-outs that look alike come from different tables or passages of the source.

Data set [1] has as its system brine shrimp (Artemia salina Leach). In words: Brine shrimp toxicity bioassay. The class given is in vivo. The note with it: for LC50: Artemia salina, read-out: LC50 brine shrimp. On the procedure: There are many applications of the assay including analysis of toxic substances, anaesthetics, morphine-like substances and cocarcinogenicity of phorbol esters.
6 (K Hostettman, ed.), Academ Press, London, 1-32. DMSO solutions of the substances to be tested were added directly to the vials containing the brine shrimp. As the concentration of DMSO that we wished to use was higher than the recommended 1% v/v testing of the toxicity of the DMSO was therefore necessary.
Brine shrimp toxicity was assayed, except for some minor modifications, according to the method of McLaughlin et al as reported in Brine Shrimp: A convenient general bioassay for active plant constituents, B N Meyer, N R Ferrigni, J E Putman, L B Jacobsen, D E Nhols and J L McLaughlin. […] J L McLaughlin. […] 6 (K Hostettman, ed.), Academ Press, London, 1-32. Ten shrimp were added transferred to each of the vials and the volume adjusted to 4.9 mL. Each dose was performed in triplicate, including the control. In quick succession, the appropriate volume of additional DMSO for each dose, required to achieve a final concentration of 2%, was added before the appropriate volume of test solution. The vials were gently mixed and the time noted. After 24 hours, the number of survivors were counted and % mortality was determined.
The LC50 values were expressed in both μM and μg/mL.

For data set [2], the target named is T1, human erythrocyte plasma membrane Ca^2+ -ATPase (Homo sapiens, UniProt P23634).
T1 construct: Calmodulin-depleted erythrocyte membranes were prepared by continuous filtration through a hollow fibre; tissue New South Wales Red Cross Transfusion Service, Sydney; host or cells: human packed red blood cells (calmodulin-depleted erythrocyte membranes)
In words: Ca^2+ -ATPase assay (microplate method), absence (-CaM) and presence (+CaM) of calmodulin (Table 1A). The class given is biochemical. On the procedure: Natural and synthetic compounds of formula (I) were tested for their ability to influence human erythrocyte plasma membrane Ca^2+ -ATPase. The enzyme Ca^2+ -ATPase in the human red blood cell plasma membrane has previously been studied and its stimulation by calmodulin and activation by lipids and proteolysis and its primary structure have been published (see Carafoli E (1991) Calcium pump of the plasma membrane, Physiological Reviews 71, 129-153.
(§1) Calmodulin-depleted erythrocyte membranes were prepared by continuous filtration through a hollow fibre, Ashahi plasma separator as described by W S Price, B D Roufogalis, P W Kuchel (1989), A simple and inexpensive method for preparing erythrocyte membranes by filtration through a hollow-filter system, Anal. Biochem., 179, 190-193. Packed cells were obtained from the New South Wales Red Cross Transfusion Service, Sydney. The whole preparation was carried out at 4° C. 1 unit of packed red cells was washed 3 times with isotonic buffer, containing 130 mM KCl, 20 mM Tris-HCl (pH 7.4), and the cells were collected by centrifugation at 4,000 RPM. The cells were haemolysed by the buffer containing 1 mM EDTA, 10 mM Tris-Hcl (pH 7.4), 0.5 mM PMSF (phenylmethyl sulfonyl fluoride). The haemolyzate mixture was passed through the hollow fibre system until the membrane appeared white, and then washed with 10 mM potassium Hepes (pH 7.4). The membranes were collected by centrifugation at 10,000 RPM for 20 min, the membranes were resuspended in storage buffer containing 130 mM KCl, 2 mM dithiothreitol, 0.5 mM MgCl2, 20 mM potassium-Hepes (pH 7.5). The membranes with protein concentration of 1.5-5.4 mg/ml were stored at -80° C. until required.
Erythrocyte membranes were incubated at 37° C. for one hour in a total volume of 60 μl of 65 mM KCl, 50 mM HEPES (pH=7.4), 5 mM MgCl2, 50 μM CaCl2, 0.1 mM EGTA and in absence and presence of calmodulin (0.3 μM). Test compounds were dissolved in dimethyl sulfoxide DMSO and 2 μl was added to the assay mixture prior the addition of ATP. The final concentration of DMSO in the assay mixture was 3%. The reaction was started by adding 2 mM ATP (pH=7.4). After 1 hour of incubation, colouring agent (180 μl) was added and incubated at 37° C. for 1/2 hrs. The phosphate liberated to the assay medium was determined spectrometrically using a microplate reader at 750 nm. The activity of the Mg^2+ -ATPase (assayed in the absence of added CaCl2) was subtracted from the total activity assayed in the presence of Ca^2+.

Data set [3] addresses T1, human erythrocyte plasma membrane Ca^2+ -ATPase. The data set can be described thus: Ca^2+ -ATPase assay (erythrocyte membranes; Table 1). The note with it: for inhibition at 100 µM / inhibition at 25 µM: read-out: INHIBITION OF Ca^2+ -ATPase PERCENT (%); for Ca^2+ -ATPase inhibitory activity relative to striatol: compared with natural product striatol. The class given is biochemical. On the procedure: Natural and synthetic compounds of formula (I) were tested for their ability to influence human erythrocyte plasma membrane Ca^2+ -ATPase.
as §1, with “Packed” for “Calmodulin-depleted erythrocyte membranes were prepared by continuous filtration through a hollow fibre, Ashahi plasma separator as described by W S Price, B D Roufogalis, P W Kuchel (1989), A simple and inexpensive method for preparing erythrocyte membranes by filtration through a hollow-filter system, Anal. Biochem., 179, 190-193. Packed”
Erythrocyte membranes (0.071-0.098 mg/ml) were incubated at 37° C. for one hour in a total volume of 0.4 ml of 65 mM KCl, 20 mM potassium-Hepes, 5 mM MgCl2, 50 μM CaCl2, 0.1 μm calmodulin, 0.1 mM EGTA. The reaction was started by adding 2 mM ATP(pH 7.4). […] The activity of the Mg^2+ -ATPase (assayed in the absence of added CaCl2) was subtracted from the total activity assayed in the presence of Ca^2+. […] A concentrated solution of the test substances was added to the reaction medium before adding ATP.

Data set [4] deals with brine shrimp (Artemia salina Leach). The note with it: determined by Meyer et al.; cited from earlier work.
Where [5] appears, read: absence of calmodulin, read-out: IC50 (-CaM).
The mark [6] stands for this setting: presence of calmodulin (0.3 μM), read-out: IC50 (+CaM).
Setting [7] is: read-out: INHIBITION OF Ca^2+ -ATPase IC50.

T1 sequence (P23634 1-1205 isoform P23634-6): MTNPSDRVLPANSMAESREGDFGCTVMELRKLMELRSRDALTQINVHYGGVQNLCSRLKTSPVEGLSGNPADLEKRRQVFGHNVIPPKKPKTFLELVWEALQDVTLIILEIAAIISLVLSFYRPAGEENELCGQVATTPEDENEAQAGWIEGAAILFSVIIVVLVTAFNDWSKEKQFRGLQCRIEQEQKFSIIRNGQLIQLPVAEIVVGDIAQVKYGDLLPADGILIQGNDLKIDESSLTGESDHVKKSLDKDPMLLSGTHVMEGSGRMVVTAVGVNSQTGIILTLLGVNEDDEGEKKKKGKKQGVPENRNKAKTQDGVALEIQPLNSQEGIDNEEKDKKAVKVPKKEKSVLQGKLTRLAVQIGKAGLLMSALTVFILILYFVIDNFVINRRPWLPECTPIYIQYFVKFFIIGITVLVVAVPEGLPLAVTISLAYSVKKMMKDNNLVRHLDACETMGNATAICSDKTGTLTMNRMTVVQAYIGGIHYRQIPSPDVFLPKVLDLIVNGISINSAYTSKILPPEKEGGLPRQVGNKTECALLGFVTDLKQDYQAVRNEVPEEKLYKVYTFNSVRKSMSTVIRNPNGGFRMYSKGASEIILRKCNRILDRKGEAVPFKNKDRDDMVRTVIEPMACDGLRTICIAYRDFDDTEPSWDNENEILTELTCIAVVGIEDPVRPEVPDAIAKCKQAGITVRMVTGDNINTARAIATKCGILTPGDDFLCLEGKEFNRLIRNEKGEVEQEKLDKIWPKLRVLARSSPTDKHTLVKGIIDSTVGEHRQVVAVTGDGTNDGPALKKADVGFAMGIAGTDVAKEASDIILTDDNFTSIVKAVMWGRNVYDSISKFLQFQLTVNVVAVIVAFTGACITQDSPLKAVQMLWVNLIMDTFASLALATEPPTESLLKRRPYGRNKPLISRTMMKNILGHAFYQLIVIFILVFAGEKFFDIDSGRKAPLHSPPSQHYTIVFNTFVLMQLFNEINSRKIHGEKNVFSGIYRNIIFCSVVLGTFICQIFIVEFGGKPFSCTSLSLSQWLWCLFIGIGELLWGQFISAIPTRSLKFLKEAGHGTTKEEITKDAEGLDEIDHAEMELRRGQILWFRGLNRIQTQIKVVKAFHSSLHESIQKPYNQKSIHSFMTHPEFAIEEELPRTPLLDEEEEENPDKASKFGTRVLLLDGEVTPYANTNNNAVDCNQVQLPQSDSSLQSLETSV
T1 sequence (P35613 140-385 partner limits assumed): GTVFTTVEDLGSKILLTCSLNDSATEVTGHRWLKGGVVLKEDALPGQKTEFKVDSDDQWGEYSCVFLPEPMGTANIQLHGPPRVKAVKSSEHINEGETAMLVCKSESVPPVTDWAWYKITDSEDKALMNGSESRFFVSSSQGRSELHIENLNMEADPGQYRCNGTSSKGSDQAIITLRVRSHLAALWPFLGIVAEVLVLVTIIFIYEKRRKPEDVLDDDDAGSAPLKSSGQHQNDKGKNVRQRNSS

In the case of `CCCCCCCCCC(c1ccccc1O)c1ccccc1O` [1,1-bis(2-hydroxyphenyl)decane], in data set [1] (24 hours), the LC50 was 14 µM and 4.6 µg/mL. Further, the IC50 in data set [2] (setting [5]) was 74 µM; in data set [2] (setting [6]), 68 µM.
As for `CCCCCCCCCc1ccccc1O` [2-nonylphenol], the IC50 in data set [3] is 30 µM; in data set [2] (IC50 (+CaM), presence of calmodulin (0.3 μM)) it was 40 µM; in data set [2] (IC50 (-CaM), absence of calmodulin), 36 µM. Besides, the inhibition at 100 µM in data set [3] is 95%. The LC50 in data set [1] (24 h) is 480 nM and 0.11 µg/mL.
`Oc1ccc(CCCCCCCCCCc2ccc(O)cc2O)c(O)c1` [1,10-bis(2,4-dihydroxyphenyl)decane]: in data set [1] (24 hours), the “toxicity to brine shrimp (in words)” value is on record as “relatively low toxicity”; the LC50 is 37 µM and 13 µg/mL. The “Ca^2+ -ATPase inhibitory activity (in words)” value in data set [2] is on record as “most potent inhibitors of plasma Ca^2+ -ATPase among the synthesised substances”. The IC50 in data set [2] (setting [5]) is 10 µM. Also, in data set [2] (setting [6]), the IC50 came to 16 µM.
Take `Oc1cccc(CCCCCCCCCCc2cccc(O)c2)c1` [1,10-bis(3-hydroxyphenyl)decane]: the LC50 in data set [1] (24 hours) was 3 µM and 0.98 µg/mL. Moreover, the IC50 is 30 µM in data set [2] (setting [5]) and 32 µM in data set [2] (setting [6]).
As for `C=C(C)C(CC=C(C)C)Cc1c(O)cc(O)c2c1OC(c1c(O)cccc1O)CC2=O` (stereo not shown) [5,7,2',6'-tetrahydroxy-8-lavandulylflavanone], the median lethal concentration (LC50) in data set [1] (24 hours) was > 100 µM and > 42 µg/mL. Also, in data set [2] (setting [5]), the IC50 is 20 µM.
As to `CCCCCCCCCCCCc1ccc(O)cc1O` [4-dodecylresorcinol, reference compound], the “Ca^2+ -ATPase inhibitory activity (in words)” value in data set [3] is recorded as “most potent among the alkylresorcinols tested”. Moreover, in data set [3] (at 100 μM), the inhibition at 100 µM was 68%. For the same molecule, the IC50 in data set [3] (setting [7]) amounted to 69 µM; in data set [2] (setting [5]), 80 µM; in data set [2] (setting [6]), 100 µM. Besides, the LC50 in data set [1] (24 hours) is 8.8 µM and 2.4 µg/mL.
Consider `Cc1ccc(CCCCCCCCCCc2ccc(C)cc2O)c(O)c1` [1,10-bis(2-hydroxy-4-methylphenyl)decane], for which, in data set [1] (24 hours), the “toxicity to brine shrimp (in words)” value was “reduced toxicity”; the LC50 is 14 µM and 5 µg/mL. The IC50 in data set [2] (setting [5]) was determined as 29 µM. Further, the IC50 in data set [2] (setting [6]) was found to be 29 µM.
As for `Oc1ccc(CCCCCCCCc2ccc(O)cc2O)c(O)c1` [1,8-bis(2,4-dihydroxyphenyl)octane], the LC50 in data set [1] (24 hours) was 74 µM and 24 µg/mL. For the same molecule, the figures for the IC50 in data set [2] (setting [5]) and in data set [2] (setting [6]) were 50 µM and 48 µM, respectively.
`COc1cc([C@@H]2c3cc4c(cc3[C@H](O)[C@H]3COC(=O)[C@H]23)OCO4)cc(OC)c1OC` [podophyllotoxin, reference compound]: the LC50 was 3.8 µM and 1.6 µg/mL in data set [1] (24 h); 5.8 µM in data set [4]. In data set [4], the “LC50 brine shrimp (Meyer et al.)” value was 2.4 µg/mL (≈ 5.79 µM).
For the molecule `Oc1ccccc1CCCCCCCCCCc1ccccc1O` [1,10-bis(2-hydroxyphenyl)decane], in data set [3], the “Ca^2+ -ATPase inhibitory activity (in words)” value is on record as “strongest Ca^2+ -ATPase inhibition among the synthesised phenolic compounds”, the inhibition at 25 µM was determined as 100% and the “Ca^2+ -ATPase inhibitory activity relative to striatol” value is recorded as “two-fold higher”. In data set [3] (setting [7]), the IC50 came to 7.6 µM. In addition, in data set [1] (24 hours), the “toxicity to brine shrimp (in words)” value was “moderately toxic”; the LC50 is 1.9 µM and 0.62 µg/mL. Further, in data set [2], the “Ca^2+ -ATPase inhibitory activity (in words)” value is on record as “most potent inhibitors of plasma Ca^2+ -ATPase among the synthesised substances”. Further, the IC50 in data set [2] (setting [5]) was 8.4 µM. Besides, in data set [2] (setting [6]), the IC50 was found to be 9 µM.
On to `Cc1cc(CCCCCCCCCCc2ccc(O)c(C)c2)ccc1O` [1,10-bis(4-hydroxy-3-methylphenyl)decane], for which, in data set [1] (24 hours), the LC50 was 4.2 µM and 1.5 µg/mL. The IC50 in data set [2] (setting [5]) is 100 µM; in data set [2] (setting [6]) it was 94 µM.
For the molecule `CCCCCCCCCc1ccc(O)cc1O` [4-nonylresorcinol], the LC50 in data set [1] (24 hours) was 10 µM and 2.4 µg/mL. Also, in data set [2] (setting [5]), the IC50 was found to be 125 µM.
Take `Oc1ccc2ccccc2c1CCCCCCCCCCc1c(O)ccc2ccccc12` [1,10-bis(2-hydroxy-1-naphthyl)decane]: the LC50 in data set [1] (24 hours) is > 25 µM and > 11 µg/mL. Further, the results for the IC50 in data set [2] (setting [5]) and in data set [2] (setting [6]) were 92 µM and 90 µM, respectively.
On to `Oc1ccccc1CCCCCCCCCCCCc1ccccc1O` [1,12-bis(2-hydroxyphenyl)dodecane], for which, in data set [3], the “Ca^2+ -ATPase inhibitory activity (in words)” value is reported as “strongest Ca^2+ -ATPase inhibition among the synthesised phenolic compounds”, the inhibition at 25 µM came to 100% and the “Ca^2+ -ATPase inhibitory activity relative to striatol” value is “two-fold higher”. Also, in data set [3] (setting [7]), the IC50 is 8.3 µM. Further, in data set [1] (24 hours), the LC50 was 2.6 µM and 0.94 µg/mL. For the same molecule, the IC50 in data set [2] (setting [5]) turned out to be 12.5 µM. In data set [2] (setting [6]), the IC50 worked out at 13 µM.
On to `Oc1ccc(CCCCCCCCCCCc2ccc(O)cc2O)c(O)c1` [1,11-bis(2,4-dihydroxyphenyl)undecane], for which, in data set [1] (24 hours), the LC50 is > 25 µM and > 9.3 µg/mL. For the same molecule, the IC50 came to 25 µM in data set [2] (setting [5]) and 21.7 µM in data set [2] (setting [6]).
As to `Cc1cccc(CCCCCCCCCCc2cccc(C)c2O)c1O` [1,10-bis(2-hydroxy-3-methylphenyl)decane], the LC50 in data set [1] (24 hours) is 5.8 µM and 2.1 µg/mL. The IC50 is 50 µM in data set [2] (setting [5]) and 55 µM in data set [2] (setting [6]).
